Test results published in ChEMBL document CHEMBL2417495, “N-Methylanilide and N-methylbenzamide derivatives as phosphodiesterase 10A (PDE10A) inhibitors” (Bioorg Med Chem, 2013).

Columns and labels:
[1] = target: T1, cAMP and cAMP-inhibited cGMP 3',5'-cyclic phosphodiesterase 10A (Homo sapiens, UniProt Q9Y233); test: Inhibition of PDE10A (unknown origin)
[2] = target: T1, cAMP and cAMP-inhibited cGMP 3',5'-cyclic phosphodiesterase 10A; test: Inhibition of PDE10A (unknown origin) at 2 uM
Liver microsomes = test: Intrinsic clearance in human liver microsomes; type: ADME, Microsome
[3] = target: High affinity cGMP-specific 3',5'-cyclic phosphodiesterase 9A (Homo sapiens) (UniProt O76083); test: Inhibition of PDE9A (unknown origin) at 2 uM
High affinity cGMP-specific 3',5'-cyclic phosphodiesterase 9A (Homo sapiens), sequence (O76083 whole entry): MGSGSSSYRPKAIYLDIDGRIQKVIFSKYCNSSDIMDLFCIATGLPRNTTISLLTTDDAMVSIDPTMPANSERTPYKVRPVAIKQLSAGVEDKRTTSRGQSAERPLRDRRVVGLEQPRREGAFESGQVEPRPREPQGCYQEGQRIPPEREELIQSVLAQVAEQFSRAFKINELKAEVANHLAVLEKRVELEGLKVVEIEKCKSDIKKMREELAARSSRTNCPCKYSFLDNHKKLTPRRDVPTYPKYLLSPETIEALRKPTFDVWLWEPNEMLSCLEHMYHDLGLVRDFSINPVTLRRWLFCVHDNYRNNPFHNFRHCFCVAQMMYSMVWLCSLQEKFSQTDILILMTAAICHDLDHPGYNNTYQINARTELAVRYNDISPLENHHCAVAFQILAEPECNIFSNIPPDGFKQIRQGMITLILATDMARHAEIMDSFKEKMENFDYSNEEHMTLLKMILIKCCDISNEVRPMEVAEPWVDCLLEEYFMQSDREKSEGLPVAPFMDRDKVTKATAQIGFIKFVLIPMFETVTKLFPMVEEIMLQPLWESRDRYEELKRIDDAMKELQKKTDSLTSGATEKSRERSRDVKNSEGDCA

[4] = target: cGMP-dependent 3',5'-cyclic phosphodiesterase (Homo sapiens) (UniProt O00408); test: Inhibition of PDE2 (unknown origin) at 2 uM
cGMP-dependent 3',5'-cyclic phosphodiesterase (Homo sapiens), sequence (O00408 whole entry): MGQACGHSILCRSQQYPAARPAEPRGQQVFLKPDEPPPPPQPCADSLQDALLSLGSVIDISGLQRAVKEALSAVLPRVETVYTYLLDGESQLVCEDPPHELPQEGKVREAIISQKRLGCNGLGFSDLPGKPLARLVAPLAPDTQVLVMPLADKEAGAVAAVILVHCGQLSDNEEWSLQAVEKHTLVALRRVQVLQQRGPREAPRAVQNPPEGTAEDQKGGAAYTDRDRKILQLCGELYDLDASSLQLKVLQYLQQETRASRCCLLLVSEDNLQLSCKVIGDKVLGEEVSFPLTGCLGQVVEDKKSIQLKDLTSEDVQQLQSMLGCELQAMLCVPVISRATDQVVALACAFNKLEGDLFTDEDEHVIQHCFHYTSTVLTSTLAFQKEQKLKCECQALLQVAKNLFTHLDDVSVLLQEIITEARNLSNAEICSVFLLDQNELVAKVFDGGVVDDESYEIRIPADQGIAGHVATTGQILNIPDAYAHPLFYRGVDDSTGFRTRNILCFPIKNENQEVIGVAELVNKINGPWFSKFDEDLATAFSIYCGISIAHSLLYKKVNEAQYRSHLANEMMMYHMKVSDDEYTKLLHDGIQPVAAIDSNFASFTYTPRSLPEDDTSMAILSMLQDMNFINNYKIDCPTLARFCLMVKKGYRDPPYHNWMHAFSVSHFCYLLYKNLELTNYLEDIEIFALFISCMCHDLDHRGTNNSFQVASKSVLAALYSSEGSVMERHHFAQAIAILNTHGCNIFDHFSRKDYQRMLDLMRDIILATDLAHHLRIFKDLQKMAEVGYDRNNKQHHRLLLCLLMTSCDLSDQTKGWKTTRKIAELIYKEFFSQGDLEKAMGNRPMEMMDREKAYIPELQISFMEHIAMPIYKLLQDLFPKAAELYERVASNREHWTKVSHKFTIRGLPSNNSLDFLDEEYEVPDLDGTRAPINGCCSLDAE

Rattus norvegicus = species: Rattus norvegicus; test: Antipsychotic activity in rat assessed as inhibition of amphetamine-stimulated locomotor activity; type: functional
[5] = target: cGMP-inhibited 3',5'-cyclic phosphodiesterase 3A (Homo sapiens) (UniProt Q14432); test: Inhibition of PDE3A (unknown origin) at 2 uM
cGMP-inhibited 3',5'-cyclic phosphodiesterase 3A (Homo sapiens), sequence (Q14432 whole entry): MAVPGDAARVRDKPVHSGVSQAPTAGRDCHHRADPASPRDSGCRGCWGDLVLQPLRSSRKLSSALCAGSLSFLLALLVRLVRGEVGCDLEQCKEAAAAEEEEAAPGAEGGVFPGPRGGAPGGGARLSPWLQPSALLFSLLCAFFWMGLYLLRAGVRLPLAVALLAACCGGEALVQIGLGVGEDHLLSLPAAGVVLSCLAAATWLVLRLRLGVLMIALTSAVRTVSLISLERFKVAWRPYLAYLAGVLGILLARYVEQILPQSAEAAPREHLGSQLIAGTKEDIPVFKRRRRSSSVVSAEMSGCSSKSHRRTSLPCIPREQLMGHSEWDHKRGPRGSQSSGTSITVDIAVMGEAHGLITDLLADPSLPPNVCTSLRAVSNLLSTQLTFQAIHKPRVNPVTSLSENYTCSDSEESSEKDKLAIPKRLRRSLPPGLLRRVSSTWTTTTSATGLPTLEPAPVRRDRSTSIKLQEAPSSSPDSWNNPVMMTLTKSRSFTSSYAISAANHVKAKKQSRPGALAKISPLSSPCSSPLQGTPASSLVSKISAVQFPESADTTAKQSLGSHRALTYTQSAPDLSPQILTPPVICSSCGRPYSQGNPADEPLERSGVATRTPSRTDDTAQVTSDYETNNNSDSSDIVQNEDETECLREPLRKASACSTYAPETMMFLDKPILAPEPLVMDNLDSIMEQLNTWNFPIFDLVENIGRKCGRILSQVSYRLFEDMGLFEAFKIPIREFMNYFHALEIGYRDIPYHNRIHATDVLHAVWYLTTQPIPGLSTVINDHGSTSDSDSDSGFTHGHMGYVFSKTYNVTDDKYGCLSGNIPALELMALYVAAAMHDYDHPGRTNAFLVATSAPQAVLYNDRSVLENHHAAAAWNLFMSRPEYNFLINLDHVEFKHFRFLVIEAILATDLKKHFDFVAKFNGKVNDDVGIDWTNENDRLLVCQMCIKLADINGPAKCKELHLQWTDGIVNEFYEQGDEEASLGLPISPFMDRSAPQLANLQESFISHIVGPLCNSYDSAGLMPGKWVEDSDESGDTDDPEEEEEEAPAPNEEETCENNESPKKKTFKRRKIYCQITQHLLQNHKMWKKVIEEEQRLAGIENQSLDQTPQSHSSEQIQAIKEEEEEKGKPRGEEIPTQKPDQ

[6] = target: 3',5'-cyclic-AMP phosphodiesterase 4D (Homo sapiens) (UniProt Q08499); test: Inhibition of PDE4D (unknown origin) at 2 uM
3',5'-cyclic-AMP phosphodiesterase 4D (Homo sapiens), sequence (Q08499 whole entry): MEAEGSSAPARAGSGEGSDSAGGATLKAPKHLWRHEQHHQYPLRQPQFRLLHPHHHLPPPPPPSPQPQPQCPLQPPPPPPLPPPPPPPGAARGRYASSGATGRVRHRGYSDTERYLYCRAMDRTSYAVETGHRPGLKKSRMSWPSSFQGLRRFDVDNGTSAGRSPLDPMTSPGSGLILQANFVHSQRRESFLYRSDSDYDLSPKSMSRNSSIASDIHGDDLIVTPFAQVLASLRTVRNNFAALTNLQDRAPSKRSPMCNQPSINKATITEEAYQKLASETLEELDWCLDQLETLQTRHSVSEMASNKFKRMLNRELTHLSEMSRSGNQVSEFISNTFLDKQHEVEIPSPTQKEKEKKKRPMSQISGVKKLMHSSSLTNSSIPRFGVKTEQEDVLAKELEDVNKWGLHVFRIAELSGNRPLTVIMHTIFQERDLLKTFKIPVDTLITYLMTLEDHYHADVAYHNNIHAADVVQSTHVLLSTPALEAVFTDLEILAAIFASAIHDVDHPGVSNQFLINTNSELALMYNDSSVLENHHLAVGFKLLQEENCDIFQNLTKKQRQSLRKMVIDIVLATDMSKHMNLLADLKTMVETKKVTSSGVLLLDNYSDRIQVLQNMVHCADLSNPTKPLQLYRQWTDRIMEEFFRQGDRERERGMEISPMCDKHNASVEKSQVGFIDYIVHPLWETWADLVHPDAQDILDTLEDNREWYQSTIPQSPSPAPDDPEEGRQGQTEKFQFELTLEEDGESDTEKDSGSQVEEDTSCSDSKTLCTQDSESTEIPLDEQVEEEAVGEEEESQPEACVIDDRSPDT

[7] = Ratio of drug uptake in brain to plasma in rat; type: ADME; conditions: read-out: BPR
[8] = target: Voltage-gated inwardly rectifying potassium channel KCNH2 (Homo sapiens, UniProt Q12809); test: Inhibition of human ERG
Homo sapiens = species: Homo sapiens; test: Selectivity ratio of IC50 for PDE (unknown origin) to IC50 for PDE10A (unknown origin)

T1 sequence (Q9Y233 whole entry): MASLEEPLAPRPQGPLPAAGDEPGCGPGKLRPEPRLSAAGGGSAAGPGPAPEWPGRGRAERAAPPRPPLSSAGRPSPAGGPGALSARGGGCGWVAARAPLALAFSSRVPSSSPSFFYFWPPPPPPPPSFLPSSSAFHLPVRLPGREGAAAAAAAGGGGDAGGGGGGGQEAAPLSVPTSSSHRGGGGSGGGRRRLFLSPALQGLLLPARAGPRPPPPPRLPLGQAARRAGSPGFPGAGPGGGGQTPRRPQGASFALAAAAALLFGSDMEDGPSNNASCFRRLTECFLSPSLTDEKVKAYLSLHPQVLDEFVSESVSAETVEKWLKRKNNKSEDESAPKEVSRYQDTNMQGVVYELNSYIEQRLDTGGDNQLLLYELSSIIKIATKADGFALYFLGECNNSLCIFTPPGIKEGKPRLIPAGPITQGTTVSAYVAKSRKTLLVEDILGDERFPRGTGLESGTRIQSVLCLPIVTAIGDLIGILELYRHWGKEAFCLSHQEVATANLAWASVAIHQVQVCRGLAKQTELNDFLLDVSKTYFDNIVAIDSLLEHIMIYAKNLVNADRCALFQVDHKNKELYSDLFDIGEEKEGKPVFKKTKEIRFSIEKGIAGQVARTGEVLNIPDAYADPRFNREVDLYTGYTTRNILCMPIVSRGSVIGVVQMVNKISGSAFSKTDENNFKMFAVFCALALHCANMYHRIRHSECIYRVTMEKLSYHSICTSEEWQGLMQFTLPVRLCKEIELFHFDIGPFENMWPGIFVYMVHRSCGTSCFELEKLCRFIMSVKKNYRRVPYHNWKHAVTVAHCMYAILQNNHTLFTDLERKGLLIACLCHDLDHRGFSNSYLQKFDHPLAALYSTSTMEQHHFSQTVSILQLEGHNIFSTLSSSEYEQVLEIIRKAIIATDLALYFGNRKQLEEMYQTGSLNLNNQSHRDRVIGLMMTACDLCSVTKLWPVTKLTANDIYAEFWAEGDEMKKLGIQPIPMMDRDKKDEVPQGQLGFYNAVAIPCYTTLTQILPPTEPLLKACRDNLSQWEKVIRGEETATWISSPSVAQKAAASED

Row | SMILES | IC50 [1] | inhibition [2] | further results
1 | CCN(C(=O)c1ccncc1)c1ccc(OCc2ccc3ccccc3n2)cc1 | 750 nM | – | –
2 | CN(C(=O)c1ccc(OCc2ccc3ccccc3n2)cc1)c1ccccc1 | 950 nM | 94% | –
3 | CN(C(=O)c1ccc(OCc2ccc3ccccc3n2)cc1)c1ccc2ncoc2c1 | 93 nM | 105% | –
4 | Cc1cccc(COc2ccc(N(C)C(=O)c3ccc4ncsc4c3)cc2)n1 | 1600 nM | 90% | –
5 | CN(C(=O)c1ccc(OCc2ccc3ccccc3n2)cc1)c1ccc2ncnn2c1 | 240 nM | 101% | –
6 | CN(C(=O)c1ccccn1)c1ccc(OCc2ccc3ccccc3n2)cc1 | – | 27% | –
7 | Cn1cc(-c2ccncc2)c(-c2ccc(OCc3ccc4ccccc4n3)cc2)n1 [MARDEPODECT] | – | – | ED50 (Rattus norvegicus): 1.8 mg/kg; CLH (Liver microsomes): 2.2 L/min
8 | CN(C(=O)c1ccc2ncsc2c1)c1ccc(OCc2nc3ccccc3n2C)cc1 | 61 nM | 104% | –
9 | CN(C(=O)c1cc(-c2ccncc2)n[nH]1)c1ccc(OCc2ccc3ccccc3n2)cc1 | 110 nM | 99% | –
10 | CN(C(=O)c1ccc(-n2ccnc2)cc1)c1ccc(OCc2ccc3ccccc3n2)cc1 | 460 nM | 98% | –
11 | CN(C(=O)c1cnc(-c2cccnc2)s1)c1ccc(OCc2ccc3ccccc3n2)cc1 | 87 nM | 103% | –
12 | CN(C(=O)c1cc(-c2ccccc2)n[nH]1)c1ccc(OCc2ccc3ccccc3n2)cc1 | 24 nM | 102% | –
13 | CN(C(=O)c1ccc(OCc2ccc3ccccc3n2)cc1)c1ccncc1 | 140 nM | 101% | –
14 | CN(C(=O)c1ccc(OCc2ccc3ccccc3n2)cc1)c1ccc2ncsc2c1 | 16 nM | 105% | inhibition [5]: 12%; CLH (Liver microsomes): 6.1 L/min; inhibition [3]: 7%; inhibition [6]: 13%; inhibition [4]: 15%

The next lines start with results.

Row | IC50 [1] | inhibition [2] | SMILES | further results
15 | 1600 nM | 88% | CN(C(=O)c1ccncc1)c1ccc(OCc2cn3ccccc3n2)cc1 | –
16 | 13 nM | 101% | CN(C(=O)c1cc(-c2cccnc2)n[nH]1)c1ccc(OCc2ccc3ccccc3n2)cc1 | –
17 | 31 nM | 101% | CN(C(=O)c1ccc2ncsc2c1)c1ccc(OCc2ccc3ccccc3n2)cc1 | CLH (Liver microsomes): 2.2 L/min; inhibition [3]: 5%; inhibition [4]: 1%
18 | 920 nM | 98% | CN(C(=O)c1ccc2ncsc2c1)c1ccc(OCc2nc3ccccc3o2)cc1 | –
19 | 130 nM | 105% | CN(C(=O)c1ccc(OCc2ccc3ccccc3n2)cc1)c1ccc2nccn2c1 | –
20 | 660 nM | 96% | CN(C(=O)c1ccccc1)c1ccc(OCc2ccc3ccccc3n2)cc1 | –
21 | 660 nM | – | CCCCN(C(=O)c1ccncc1)c1ccc(OCc2ccc3ccccc3n2)cc1 | –
22 | 250 nM | 80% | CN(C(=O)c1ccncc1)c1ccc(OCc2ccc3ccccc3n2)cc1 | inhibition [5]: 16%; ED50 (Rattus norvegicus): 60 mg/kg; CLH (Liver microsomes): 1.1 L/min; inhibition [3]: 22%; inhibition [6]: 4%; Kp [7]: 0.6; IC50 [8]: > 50000 nM; Ratio IC50 (Homo sapiens): > 50; inhibition [4]: 14%
23 | 12 nM | 100% | CN(C(=O)c1cc(-c2ccccn2)n[nH]1)c1ccc(OCc2ccc3ccccc3n2)cc1 | inhibition [5]: 0%; CLH (Liver microsomes): 2.4 L/min; inhibition [3]: 0%; inhibition [6]: 0%; inhibition [4]: 12%
24 | – | 33% | O=C(Nc1ccc(OCc2ccc3ccccc3n2)cc1)c1ccncc1 | –
25 | 88 nM | 101% | CN(C(=O)c1cnc(-c2ccncc2)s1)c1ccc(OCc2ccc3ccccc3n2)cc1 | –
26 | – | 62% | CN(C(=O)c1cccnc1)c1ccc(OCc2ccc3ccccc3n2)cc1 | –
27 | 400 nM | 100% | CN(C(=O)c1ccc(OCc2ccc3ccccc3n2)cc1)c1ccn2ncnc2c1 | –
